Like-named read-outs stand apart in the source and are kept apart here. Residues, ends and D or L forms follow the SMILES beside them.
T1: p_R-CD81 (rat)
T1 construct: rat CD81, head domain of the large extracellular loop, residues 167-188; Immobilised on a CM-5 chip by amine coupling; also called rat CD81 peptide; receptor peptide from the head domain region of rat CD81; source: synthetic peptide, bought: GeneMark (GMbiolab Co., Ltd., Taiwan)
T1 peptide: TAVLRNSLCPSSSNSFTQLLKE

T2: p_H-CD81 (human)
T2 construct: human CD81, head domain of the large extracellular loop, residues 167-188; Immobilised on a CM-5 chip by amine coupling; also called human CD81 peptide; receptor peptide from the head domain region of human CD81; source: synthetic peptide, bought: GeneMark (GMbiolab Co., Ltd., Taiwan)
T2 peptide: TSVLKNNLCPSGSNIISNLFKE

B1: p_E2-site1 (peptide)
peptide: INSTALNCNESLNTGWLAGLFYQ
notes: hepatitis C virus envelope glycoprotein E2, residues 422-444 of the polyprotein; also called E2-site1 peptide; E2-s1; source: synthetic peptide, bought: GeneMark (GMbiolab Co., Ltd., Taiwan)
B2: p_E2-site2 (peptide)
peptide: RSGAPTYSWGANDTDVF
notes: hepatitis C virus envelope glycoprotein E2, residues 521-537 of the polyprotein; also called E2-site2 peptide; E2-s2; source: synthetic peptide, bought: GeneMark (GMbiolab Co., Ltd., Taiwan)

Assays:
[1] = biological target: T3, p_R-CD81 (rat CD81 peptide) (Rattus norvegicus, UniProt Q62745); experiment: SPR binding to immobilized rat CD81 peptide; conditions: for Kd: steady-state isotherm; for SPR response / binding (in words): various concentrations over immobilized rat CD81 peptide
T3 construct: ^167[…]^188; purchased GeneMark (GMbiolab Co., Ltd., Taiwan); host or cells: chemical synthesis
Source text: (§1) Based on the in silico analysis, peptides were designed for experimental validations of the binding site predictions. Four peptides (p_E2-site1, p_E2-site2, p_H-CD81 and p_R-CD81) designed according to the ZDOCK program and MM/PBSA binding free energy calculations were chemically synthesized and purchased from GeneMark (GMbiolab Co., Ltd., Taiwan). The human and rat CD81 peptides, p_H-CD81 and p_R-CD81, and the HCV E2 peptides, p_E2-site1 and p_E2-site2, were derived from the results of molecular docking between ligand E2 and receptor CD81. Control and HCV E2 mutant peptides were also synthesized (S1 Table) for the SPR and cell based binding measurements to rule out the possible non-specific bindings in the investigations. The HCV E2 mutant peptides were designed based on the mutation studies.
(§2) SPR experiments were conducted to measure the binding efficiency of the designed ligand and receptor peptides. The SPR measurements were performed using a Biacore T200 workstation (GE Healthcare, USA). Peptides p_H-CD81 and p_R-CD81 were diluted to a concentration of 7.5 μM in a 10 mM sodium acetate buffer at pH 4.0 and immobilized onto a CM-5 sensor chip using amine coupling (EDC-NHS) for 5 min at a flow speed of 5 μL/min. Approximately 1000 response units (RU) of p_H-CD81 and p_R-CD81 were immobilized on the chip. In this study, data on the kinetics and affinity of ligand-receptor binding were obtained by flowing several different concentrations of the p_E2-site1 and p_E2-site2 over the chip sequentially at a flow rate of 30 µL/min for 2 min. The response was measured at two time points, 0 and 120 sec, to obtain information on the rate of CD81 peptides association with and dissociation from the p-E2-site1 and p-E2-site2 peptides. Equilibrium binding curves were generated and fitted using a monovalent binding model for each peptide to determine the KD of the binding of E2 peptides (p_E2-site1 and p_E2-site2) with receptor CD81 peptides (p_H-CD81 and p_R-CD81).

[2] = biological target: T4, p_H-CD81 (human CD81 peptide) (Homo sapiens, UniProt P60033); experiment: SPR binding to immobilized human CD81 peptide; conditions: for Kd: Biacore T200, CM-5 chip, p_H-CD81 immobilized (~1000 RU), flow 30 µL/min 2 min, steady-state isotherm, monovalent model, average of three measurements ± standard deviation; for SPR response / binding (in words): various concentrations over immobilized human CD81 peptide
T4 construct: ^167[…]^188; purchased GeneMark (GMbiolab Co., Ltd., Taiwan); host or cells: chemical synthesis
Source text: as §1, §2

[3] = biological target: T1, p_R-CD81; experiment: SPR; Biacore T200; p_H-CD81 or p_R-CD81 (about 1000 RU) immobilised on a CM-5 chip by amine coupling; E2 peptides flowed over at several concentrations, 30 µL/min for 2 min; equilibrium binding curves fitted with a monovalent binding model; conditions: both partners purified
[4] = biological target: T2, p_H-CD81; experiment: as above; conditions: both partners purified

Molecule	Kd [2] [µM]	SPR response / binding (in words) [1]	SPR response / binding (in words) [2]	Kd [3] [µM]	Kd [4] [µM]	also measured
CC[C@H](C)[C@H](N)C(=O)N[C@@H](CC(N)=O)C(=O)N[C@@H](CO)C(=O)N[C@H](C(=O)N[C@@H](C)C(=O)N[C@@H](CC(C)C)C(=O)N[C@@H](CC(N)=O)C(=O)N[C@@H](CS)C(=O)N[C@@H](CC(N)=O)C(=O)N[C@@H](CCC(=O)O)C(=O)N[C@@H](CO)C(=O)N[C@@H](CC(C)C)C(=O)N[C@@H](CC(N)=O)C(=O)N[C@H](C(=O)NCC(=O)N[C@@H](Cc1c[nH]c2ccccc12)C(=O)N[C@@H](CC(C)C)C(=O)N[C@@H](C)C(=O)NCC(=O)N[C@@H](CC(C)C)C(=O)N[C@@H](Cc1ccccc1)C(=O)N[C@@H](Cc1ccc(O)cc1)C(=O)N[C@@H](CCC(N)=O)C(=O)O)[C@@H](C)O)[C@@H](C)O [p_E2-site1] (H-INSTALNCNESLNTGWLAGLFYQ-OH)	7.96 ± 1.7					Kd ([1]; Biacore T200, CM-5 chip, p_R-CD81 immobilized (~1000 RU), flow 30 µL/min 2 min, monovalent model, average of three measurements ± standard deviation, read-out: KD): 13.8 ± 2.46 µM
CC(C)[C@H](NC(=O)[C@H](CC(=O)O)NC(=O)[C@@H](NC(=O)[C@H](CC(=O)O)NC(=O)[C@H](CC(N)=O)NC(=O)[C@H](C)NC(=O)CNC(=O)[C@H](Cc1c[nH]c2ccccc12)NC(=O)[C@H](CO)NC(=O)[C@H](Cc1ccc(O)cc1)NC(=O)[C@@H](NC(=O)[C@@H]1CCCN1C(=O)[C@H](C)NC(=O)CNC(=O)[C@H](CO)NC(=O)[C@@H](N)CCCNC(=N)N)[C@@H](C)O)[C@@H](C)O)C(=O)N[C@@H](Cc1ccccc1)C(=O)O [p_E2-site2] (H-RSGAPTYSWGANDTDVF-OH)	1.07 ± 0.09					Kd ([1]; p_R-CD81 immobilized, value printed in Fig 6 plot, read-out: KD (printed in the picture, Fig 6)): 6.4 µM
CPLNGSTVYGHLRHCLSCSGTMVKF [p_random-25, control (random) peptide]		not significantly increased	not significantly increased			
SENHLRHCLSCSKCRKEM [p_random-18, control (random) peptide]		not significantly increased	not significantly increased			
B1				13.8	7.96	
B2				6.38	1.07	

Reference: paper PMC5421814, “A Sequence in the loop domain of hepatitis C virus E2 protein identified in silico as crucial for the selective binding to human CD81” (PLoS ONE, 2017)
